Results taken from ChEMBL document CHEMBL1201862, “PubChem BioAssay data set” (2004).
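These data come from cells grown in 96-well plates and exposed to compound for 48 hours at five concentrations. The concentration for 50% growth inhibition is given as GI50.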 Active and inactive are the calls of the source. Cut-off read from the data, not from the text of the source: active = GI50 up to about 1.1 µM and inactive = higher.

Legend:
Assay in all cases: NCI tumour cell line growth inhibition, 48 h
EKVX = test system: EKVX
KM-20L2 = test system: KM-20L2
COLO 205 = test system: COLO 205
HCT-116 = test system: HCT-116
CCRF-CEM = test system: CCRF-CEM
OVCAR-5 = test system: OVCAR-5
K562 = test system: K562
SF-295 = test system: SF-295
SNB-75 = test system: SNB-75
SN12C = test system: SN12C
NCI-H23 = test system: NCI-H23
IGROV-1 = test system: IGROV-1
A549 = test system: A549
SNB-78 = test system: SNB-78
NCI-H460 = test system: NCI-H460
786-0 = test system: 786-0
SK-OV-3 = test system: SK-OV-3
SNB-19 = test system: SNB-19
RXF 393 = test system: RXF 393
LXFL 529 = test system: LXFL 529
KM12 = test system: KM12
DMS-273 = test system: DMS-273
Malme-3M = test system: Malme-3M
OVCAR-4 = test system: OVCAR-4
SF-539 = test system: SF-539
DLD-1 = test system: DLD-1
SK-MEL-5 = test system: SK-MEL-5
SF-268 = test system: SF-268
OVCAR-3 = test system: OVCAR-3
MOLT-4 = test system: MOLT-4
CAKI-1 = test system: CAKI-1
HCT-15 = test system: HCT-15
HL-60 = test system: HL-60
HCC 2998 = test system: HCC 2998
U-251 = test system: U-251
M14 = test system: M14
ACHN = test system: ACHN
TK-10 = test system: TK-10
RXF 631 = test system: RXF 631
UO-31 = test system: UO-31
HOP-62 = test system: HOP-62
LOX IMVI = test system: LOX IMVI
DMS-114 = test system: DMS-114
SW-620 = test system: SW-620
SK-MEL-2 = test system: SK-MEL-2
UACC-257 = test system: UACC-257
UACC-62 = test system: UACC-62
OVCAR-8 = test system: OVCAR-8
XF498 = test system: XF498
M19-MEL = test system: M19-MEL
HT-29 = test system: HT-29
HOP-92 = test system: HOP-92
RPMI-8226 = test system: RPMI-8226
HOP-18 = test system: HOP-18
NCI-H226 = test system: NCI-H226
A498 = test system: A498
SK-MEL-28 = test system: SK-MEL-28
NCI-H522 = test system: NCI-H522
SR = test system: SR

Measured: GI50

COC(=O)/C=C1\CCC(C)O1 (centres undefined)
> 100 µM: HCT-15
inactive: EKVX > 100 µM | KM-20L2 > 100 µM | COLO 205 > 100 µM | HCT-116 > 100 µM | CCRF-CEM > 100 µM | OVCAR-5 > 100 µM | K562 > 100 µM | SF-295 > 100 µM | SNB-75 39.5 µM | SN12C > 100 µM | NCI-H23 > 100 µM | IGROV-1 > 100 µM | A549 > 100 µM | SNB-78 > 100 µM | NCI-H460 > 100 µM | 786-0 > 100 µM | SK-OV-3 > 100 µM | SNB-19 > 100 µM | RXF 393 > 100 µM | LXFL 529 > 100 µM | KM12 > 100 µM | DMS-273 > 100 µM | Malme-3M > 100 µM | OVCAR-4 > 100 µM | SF-539 > 100 µM | DLD-1 > 100 µM | SK-MEL-5 > 100 µM | SF-268 > 100 µM | OVCAR-3 > 100 µM | MOLT-4 > 100 µM | CAKI-1 > 100 µM | HL-60 > 100 µM | HCC 2998 > 100 µM | U-251 > 100 µM | M14 > 100 µM | ACHN > 100 µM | TK-10 > 100 µM | RXF 631 > 100 µM | UO-31 > 100 µM | HOP-62 > 100 µM | LOX IMVI > 100 µM | DMS-114 > 100 µM | SW-620 > 100 µM | SK-MEL-2 > 100 µM | UACC-257 > 100 µM | UACC-62 > 100 µM | OVCAR-8 > 100 µM | XF498 > 100 µM | M19-MEL > 100 µM | HT-29 > 100 µM | HOP-92 24 µM | RPMI-8226 > 100 µM

C1=CC=C2NCCOCC/N=C3/C=CC=CC=C3NCCOCC/N=C\2C=C1
inactive: EKVX > 100 µM | KM-20L2 21.6 µM | COLO 205 45 µM | HCT-116 28.4 µM | CCRF-CEM 40 µM | OVCAR-5 > 100 µM | K562 31.4 µM | SF-295 52 µM | SNB-75 > 100 µM | SN12C 77.6 µM | NCI-H23 > 100 µM | IGROV-1 > 100 µM | A549 63.7 µM | SNB-78 > 100 µM | NCI-H460 30.4 µM | 786-0 > 100 µM | SK-OV-3 > 100 µM | SNB-19 > 100 µM | LXFL 529 40.1 µM | KM12 66.2 µM | DMS-273 > 100 µM | Malme-3M 21.5 µM | OVCAR-4 59.2 µM | DLD-1 > 100 µM | SK-MEL-5 48.6 µM | SF-268 > 100 µM | OVCAR-3 > 100 µM | MOLT-4 44.9 µM | CAKI-1 > 100 µM | HOP-18 > 100 µM | NCI-H226 > 100 µM | HL-60 22.4 µM | HCC 2998 67.1 µM | A498 > 100 µM | U-251 > 100 µM | M14 17.8 µM | ACHN > 100 µM | TK-10 > 100 µM | SK-MEL-28 86.5 µM | RXF 631 30 µM | UO-31 > 100 µM | HOP-62 > 100 µM | LOX IMVI 29 µM | DMS-114 46.6 µM | SW-620 32.4 µM | NCI-H522 > 100 µM | SK-MEL-2 69 µM | UACC-257 20 µM | UACC-62 47.9 µM | OVCAR-8 57.4 µM | M19-MEL > 100 µM | HT-29 15.7 µM | RPMI-8226 45.7 µM
41.3 µM: HCT-15

COc1cc2ccc3c4c(OC)cc(OC)c(OC)c4c([O-])[n+](C)c3c2cc1OC
active: K562 0.568 µM | DMS-273 0.428 µM | SR 0.759 µM | RPMI-8226 0.368 µM
inactive: EKVX 22.2 µM | KM-20L2 9.38 µM | COLO 205 2.58 µM | HCT-116 11.5 µM | OVCAR-5 11.1 µM | SF-295 4.47 µM | SNB-75 11.8 µM | SN12C 1.74 µM | NCI-H23 10.1 µM | IGROV-1 6.98 µM | A549 4.01 µM | SNB-78 10.2 µM | 786-0 > 100 µM | SK-OV-3 > 33 µM | SNB-19 15.7 µM | LXFL 529 1.79 µM | KM12 4.37 µM | Malme-3M 17.5 µM | OVCAR-4 18.1 µM | SF-539 > 32.7 µM | SK-MEL-5 9.02 µM | SF-268 3.46 µM | OVCAR-3 7.13 µM | MOLT-4 1.67 µM | CAKI-1 > 20.6 µM | HOP-18 > 100 µM | HL-60 1.33 µM | HCC 2998 14.4 µM | A498 3.76 µM | U-251 1.39 µM | ACHN > 24.8 µM | TK-10 > 40.3 µM | SK-MEL-28 30.3 µM | RXF 631 > 100 µM | UO-31 > 34 µM | HOP-62 15.1 µM | DMS-114 2.37 µM | NCI-H522 2.55 µM | SK-MEL-2 21.9 µM | UACC-257 17.9 µM | UACC-62 25.1 µM | OVCAR-8 45.3 µM | XF498 2.34 µM | M19-MEL 6.46 µM | HT-29 6.47 µM | HOP-92 12 µM

COc1cc(C(C)c2cc3c(cc2OCCCCOc2cc4c(cc2C(C)c2cc(OC)c(OC)c(OC)c2)OCO4)OCO3)cc(OC)c1OC (centres undefined)
34.8 µM: HCT-15
inactive: EKVX 40.5 µM | KM-20L2 > 100 µM | COLO 205 > 100 µM | HCT-116 31.7 µM | CCRF-CEM 48.3 µM | OVCAR-5 > 100 µM | K562 28.2 µM | SF-295 26.5 µM | SNB-75 24.8 µM | SN12C 29.6 µM | NCI-H23 40.4 µM | IGROV-1 49.9 µM | A549 48.4 µM | SNB-78 20.1 µM | NCI-H460 45.3 µM | 786-0 49.2 µM | SK-OV-3 34.4 µM | SNB-19 > 100 µM | RXF 393 17.6 µM | LXFL 529 33.3 µM | KM12 33 µM | Malme-3M 35.6 µM | OVCAR-4 92.3 µM | SF-539 23.7 µM | DLD-1 35.6 µM | SK-MEL-5 29.1 µM | SF-268 51.5 µM | OVCAR-3 21.7 µM | SR 10.2 µM | MOLT-4 41.4 µM | CAKI-1 > 100 µM | NCI-H226 31.5 µM | HL-60 37.8 µM | HCC 2998 29.5 µM | U-251 29.7 µM | M14 24.5 µM | ACHN 69.5 µM | TK-10 > 100 µM | SK-MEL-28 71 µM | RXF 631 39.7 µM | UO-31 46.3 µM | HOP-62 37.4 µM | LOX IMVI > 100 µM | DMS-114 15.9 µM | SW-620 26.9 µM | SK-MEL-2 42.3 µM | UACC-257 84.7 µM | UACC-62 21.1 µM | OVCAR-8 34.8 µM | XF498 27.6 µM | M19-MEL 38.4 µM | HT-29 68.9 µM | RPMI-8226 25.5 µM

CC1CN(C(=O)CN2CCC(CCCCN(C)C)CC2)c2ccccc2NC1=O (centres undefined)
> 100 µM: HCT-15
inactive: KM-20L2 > 100 µM | COLO 205 > 100 µM | HCT-116 > 100 µM | CCRF-CEM > 100 µM | OVCAR-5 > 100 µM | K562 > 100 µM | SF-295 > 100 µM | SN12C > 100 µM | NCI-H23 > 100 µM | IGROV-1 > 100 µM | A549 > 100 µM | NCI-H460 > 100 µM | 786-0 > 100 µM | SK-OV-3 > 100 µM | SNB-19 > 100 µM | LXFL 529 > 100 µM | DMS-273 > 100 µM | Malme-3M > 100 µM | OVCAR-4 > 100 µM | DLD-1 > 100 µM | SK-MEL-5 > 100 µM | SF-268 > 100 µM | OVCAR-3 > 100 µM | SR > 100 µM | MOLT-4 > 100 µM | CAKI-1 90.6 µM | HOP-18 > 100 µM | NCI-H226 > 100 µM | HL-60 > 100 µM | HCC 2998 > 100 µM | A498 > 100 µM | U-251 > 100 µM | M14 > 100 µM | ACHN > 100 µM | SK-MEL-28 > 100 µM | RXF 631 > 100 µM | UO-31 > 100 µM | HOP-62 > 100 µM | LOX IMVI > 100 µM | DMS-114 > 100 µM | SW-620 > 100 µM | UACC-257 > 100 µM | UACC-62 > 100 µM | M19-MEL > 100 µM | HT-29 > 100 µM | HOP-92 > 100 µM | RPMI-8226 > 100 µM
